# Assay results taken from PubChem BioAssay AID463074 (Broad Institute, 2010).
# Active and inactive are the calls of the source.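 How the source made its calls: active means AC50 no more than tenfold above the top dose tested, or full inhibition at every dose with a flat fit (cut at about 19 µM in these data); inconclusive means flat curve fit with inhibition between 30% and 70%, or poor fit; inactive means AC50 more than tenfold above the top dose tested.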
# System: HMLE_sh_eGFP viability, CellTiter-Glo luminescence, 72 h
# Experiment: viability loss of HMLE_sh_eGFP cells – cell-based, luminescence, counter-screen for HMLE_sh_ECad selective toxicity project, dose response (AID 463074);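 further: counterscreen control line to flag general toxicity for the HMLE_sh_ECad screen; potency for loss of viability as luminescence drops below DMSO wells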
row,SMILES,AC50
1,Cc1nc(C2CCC3C4CCC5=CC(=O)CC[C@]5(C)C4CC[C@]23C)cs1 (some centres not stated),7.15 µM
2,CCN(CC)CCCNC(=S)N1CCN(c2nc(-c3ccc(F)cc3)cs2)CC1,2.44 µM
3,COCCNC(=O)c1c[nH]c2ccc(S(=O)(=O)N3CCc4ccccc43)cc2c1=O,5.53 µM
4,CCC(c1nnnn1Cc1ccco1)N1CCN(c2cc(Cl)ccc2C)CC1 (configuration not stated),4.04 µM
5,Cc1[nH]n(-c2ccc([N+](=O)[O-])cc2)c(=O)c1C=NCCN1CCN(C(=O)C(C)C)CC1,5.14 µM
6,NS(=O)(=O)c1ccc(N=Cc2c(O)n(C3CCCCC3)c(=O)n(C3CCCCC3)c2=O)cc1,3.81 µM
7,CCN1C(=O)C(CC(=O)Nc2ccc(OC)cc2)N(CCCN2CCN(c3ccc(F)cc3)CC2)C1=S (configuration not stated),7.04 µM
8,Cc1cccn2c(/C=N/OCc3cccc(F)c3)c(-c3ccc(Cl)cc3)nc12,10.5 µM
9,CNC(CC(=O)c1ccc([N+](=O)[O-])cc1)C(Cl)(Cl)Cl (configuration not stated),3.96 µM
10,O=C(CN1CCCc2ccccc21)N/N=C/c1c(O)ccc2ccccc12,2.7 µM
11,COc1ccc(NC(=O)c2cccc(-c3ccc(O)cc3)c2)cn1,7 µM
12,CCC1=NN2C(=N)/C(=C/c3c(C)nn(-c4ccccc4)c3Cl)C(=O)N=C2S1,> 19.5 µM (inactive)
13,Sc1nnc(-c2ccc(Cl)cc2)n1Cc1ccccc1,8.62 µM
14,COc1ccccc1NC(=O)c1c(Nc2ccccc2F)sc(C(=O)Nc2cccc(Cl)c2)c1N,2.95 µM
15,CCCCCCc1cc2cc(S(=O)(=O)c3ccc(C)cc3)c(=O)oc2cc1O,2.43 µM
16,O/N=C(\c1ccc(Cl)cc1Cl)c1ncc(C(F)(F)F)cc1Cl,13.9 µM
17,C[C@@H]1O[C@@H](O[C@H]2C[C@@H](O)[C@]3(CO)[C@H]4[C@H](O)C[C@]5(C)[C@@H](C6=CC(=O)OC6)CC[C@]5(O)[C@@H]4CC[C@]3(O)C2)[C@H](O)[C@H](O)[C@H]1O,< 0.16 µM
18,CC(C)CN=C(NS(=O)(=O)c1ccccc1)C(Cl)(Cl)Cl,3.27 µM
19,Cc1cc(C)nc(NC(=O)c2ccc(COc3ccccc3Cl)cc2)c1,0.401 µM
20,Cc1nn(-c2ccc(F)cc2)c(Cl)c1/C=C1\C(=O)Nc2ccccc21,2.34 µM
21,COC(=O)c1ccccc1NCc1cc(=O)oc2cc(O)c(O)cc12,10.9 µM
22,COc1cc(CNCCc2ccccc2)cc(Cl)c1OCc1ccccc1,4.84 µM
23,CC#CCOC(=O)c1c(C)nc2sc3c(c2c1N)CCC(O)C3 (configuration not stated),2.65 µM
24,CN1CCN(C2Cc3ccccc3Sc3cc(C(F)(F)F)ccc32)CC1 (configuration not stated),6.9 µM
25,COc1cc(/C=C2\C(=O)ON=C2c2ccc(Cl)cc2)ccc1O,1.55 µM
26,FC(F)(F)c1cc(CCN2C(=S)NC[C@@H]2CC2CCCCC2)cc(C(F)(F)F)c1,7.29 µM

row,SMILES,AC50
1,Cc1ccc(CN2CCSc3ccc(C(=O)NCc4ccco4)cc32)cc1,> 19.5 µM (inactive)
2,CNC(C)C(=O)NC(C(=O)N1CCCC1C(=O)NNc1ccccc1)C(C)C (configuration not stated),6.41 µM
3,COc1cc(/C=N/NC(=O)c2cc(C34CC5CC(CC(C5)C3)C4)[nH]n2)ccc1O,0.24 µM
4,O=C(CNC(=S)N(Cc1ccccc1)Cc1ccccc1F)NCCc1ccc(Cl)cc1,6.98 µM
5,Cc1ccc(-c2nc(Nc3cccc(O)c3)c3ccccc3n2)cc1,7.23 µM
6,O=C(O)CCN1C(=O)C(=C2CCCCCC2)SC1=S,> 19.5 µM (inactive)
7,CCCCNC(=O)c1ccc(Cn2c(=S)[nH]c3c([nH]c4ccc(OC)cc43)c2=O)cc1,1.38 µM
8,O=C(NNC1=C(C(=O)C(F)(F)F)CCC1)c1cccc(Cl)c1,3.64 µM
9,Oc1ccccc1/C=N/NP(=S)(c1ccccc1)c1ccccc1,6.98 µM
10,CCOC(=O)c1ccc(-n2[nH]c(-c3ccccc3)cc2=O)cc1,7.96 µM
11,O=C(Nc1ccc(Cl)cc1)N1CCCN(c2ccc(C(F)(F)F)cc2[N+](=O)[O-])CC1,6.57 µM
12,Cc1occc1C(=O)Nc1ccc(OCc2ccccc2)cc1,6.25 µM
13,O=S(=O)([N-]c1nc2ccccc2nc1-[n+]1ccc(Cc2ccccc2)cc1)c1ccc(Br)s1,6.16 µM
14,O=C(NCc1ccco1)c1ccc2c(c1)N(Cc1ccccc1)CCS2,> 19.5 µM (inactive)
15,CC1CC1C(=O)N1CCN(S(=O)(=O)c2cc(C(F)(F)F)cc(C(F)(F)F)c2)CC1 (configuration not stated),6.27 µM
16,CC1(C)C=C2[C@H]3CC[C@@H]4[C@@]5(C)CCC(=O)C(C)(C)[C@@H]5CC[C@@]4(C)[C@]3(C)CC[C@@]2(C(=O)O)CC1,3.58 µM
17,COc1ccc(-c2csc3nc(-c4ccccc4F)oc(=O)c23)cc1OC,3.86 µM
18,O=[N+]([O-])c1ccc(Cl)c(/C=N/n2c(C3CCCCC3)n[nH]c2=S)c1,> 19.5 µM (inactive)
19,CN(C)CCOc1ccc(-c2c(-c3ccsc3)sc3ccccc23)cc1,3.04 µM
20,COCCCn1c(SCc2cccc(C(F)(F)F)c2)nc2cc(OC)c(OC)cc2c1=N,4.75 µM
21,CC/C(=N\Nc1ccccc1)c1c(O)n(-c2ccccc2)c(=O)[nH]c1=O,2.16 µM
22,Cc1c(O)cc2c(c1O)C(=O)CC(c1ccccc1)O2 (configuration not stated),15.2 µM
23,CCOC(=O)C1CCN(c2ncnc3c2c(-c2ccccc2)cn3-c2ccccc2)CC1,7.43 µM
24,C=CCn1cccc(/C=C/C(=O)c2ccc(C(C)(C)C)cc2)c1=S,6.19 µM
25,Cc1ccc(C(C)C)c(OCc2nn(CC(=O)c3ccc(Cl)cc3)c3[n+]2CCCCC3)c1,3.22 µM
26,O=c1oc2ccccc2c(O)c1Cc1cc(Cl)c2cccnc2c1O,4.9 µM

row,SMILES,AC50
1,Cc1nc(NC(=O)CC(C)C)sc1-c1csc(Nc2ccc(Cl)cc2Cl)n1,2.38 µM
2,O=C(/C=C/c1ccc(Cl)c([N+](=O)[O-])c1)Nc1cccc(NC(=O)c2ccco2)c1,1.69 µM
3,COC(=O)C1=C(C)N(Cc2ccccc2)C(=NCc2cccc(Cl)c2)N[C@H]1c1cccc(F)c1,3.62 µM
4,COCCNC(=O)CN(C(=O)CCC(=O)Nc1ccccn1)c1ccc(C)cc1,> 19.5 µM (inactive)
5,CC1=NOC(=O)/C1=C\c1ccc(-c2cc(Cl)ccc2Cl)o1,1.06 µM
6,Cc1cccc(C)c1N=Nc1c(C)cc(O)cc1C,7.2 µM
7,Cc1ccc(C=Nc2ccccc2C(N)=O)s1,2.79 µM
8,COc1ccc(-c2sc3cc4c(cc3c2C#CC2(N)CCCCC2)OCO4)cc1,1.91 µM
9,CC12CCC(C/C1=N\N=C1\NC(=O)/C(=C\c3cccc(Br)c3)S1)C2(C)C (configuration not stated),2.49 µM
10,O=Nc1c(O)n(Cc2ccc(Cl)cc2Cl)c2ccccc12,7.05 µM
11,COc1ccc(OC)c(-c2cc(-c3cccnc3)nc(N)c2C#N)c1,1.95 µM
12,COc1cc(/C=C/c2ccc3cccc(OC)c3n2)c(OC(C)=O)c([N+](=O)[O-])c1,16.2 µM
13,CCOC(=O)c1cnc(-n2nc(C)cc2C)nc1NNc1cc(C)nc(-c2ccccc2)n1,2.97 µM
14,CS(=O)(=O)c1ncc(Cl)c(C(=O)Nc2ccc(N3CCOCC3)cc2)n1,6.81 µM
15,O=[N+]([O-])/C=C/c1cn(Cc2ccc(F)cc2)c2ccccc12,6.86 µM
16,N/C(=N\N=C/c1ccc(F)cc1)N/N=C\c1ccc(F)cc1,5.13 µM
17,Cc1cccc(C(=O)N/N=C/c2ccc(OC3CSC3)cc2)c1,2.73 µM
18,CCOC(=O)c1cnc2ccc(OCC)cc2c1NCc1ccccc1OC,4.7 µM
19,COc1cccc(N2CCN(Cc3nc4scc(-c5ccccc5)c4c(=O)[nH]3)CC2)c1,2.59 µM
20,O=C1NN(c2cccc(Br)c2)C(=O)/C1=C\c1ccccc1,6.97 µM
21,Clc1ccc2c(N/N=C/c3cccc(Br)c3)ccnc2c1,4.06 µM
22,Cc1ccn2c(NC3CCCCC3)c(-c3cccc(-c4cccc(Cl)c4)c3)nc2c1,6.68 µM
23,OC(CN1CCN(c2ccccn2)CC1)Cn1c2ccc(Cl)cc2c2cc(Cl)ccc21 (configuration not stated),6.78 µM
24,Cc1cccc(CN2C(=O)[C@@H]3Cc4c([nH]c5ccccc45)C(C)(C)N3C2=O)c1,12.3 µM
25,Cc1ccc(S(=O)(=O)Nc2ccccc2-c2ccccc2NS(=O)(=O)c2ccc(C)cc2)cc1,6.98 µM
26,CCOC(=O)C(=Cc1ccc(OCc2ccc([N+](=O)[O-])cc2)c(OC)c1)C(=O)OCC,3.03 µM

row,SMILES,AC50
1,CC(C)CCNc1nc(-c2ccco2)c2c(c1C#N)CCCC2,11.3 µM
2,CC(=O)C12CC(C)=C(C)CC1CC1C3CCC4=CC(=O)CCC4(C)C3CCC12C (configuration not stated),6.65 µM
3,CC(C)(C)c1ccc(Oc2ccc(N)cc2)cc1,13.5 µM
4,O=C(Nc1ccccc1)C1=C[C@@H](c2ccc(C(F)(F)F)cc2)C[C@@H](OCc2ccc(CO)cc2)O1,7.43 µM
5,CCOc1ccc(NC(=O)Nc2ccc(Cc3ccncc3)cc2)cc1,7.84 µM
6,CCC1=NN(C(=O)c2ccc(Cl)cc2)C(O)(c2ccc(C)cc2)C1 (configuration not stated),7.99 µM
7,CC(C)(C)c1ccc(OCC(=O)N/N=C/c2cc(Br)ccc2OC(=O)c2ccco2)cc1,3.61 µM
8,Cc1cccc(-n2cc(-c3ccccc3)c3c(N4CCOCC4)ncnc32)c1,4.59 µM
9,Cc1ccc(-c2cc(C(=O)N/N=C/c3ccccc3O)n[nH]2)o1,10.2 µM
10,CC(C)(C)c1cc(C(=O)N/N=C/c2ccccc2O)n(-c2ccccc2)n1,4.41 µM
11,CCCC(O)(c1ccc(Cl)cc1)C(CN1CCOCC1)c1ccc(Cl)cc1 (configuration not stated),9.47 µM
12,CC(C)Cn1c(O)c(N=NC(=O)c2cccc(S(=O)(=O)N3CCCCC3)c2)c2ccccc21,1.57 µM
13,Cc1ccc(C)c(N2CCN(C(=O)c3ccc4c(c3)c(C)c(C)n4C)CC2)c1,9.07 µM
14,COc1ccc(OC)c(Nc2c3ccccc3nc3ccccc23)c1,2.7 µM
15,CCOC(=O)/C=C/C(=O)Nc1cccc([N+](=O)[O-])c1,8.97 µM
16,COc1c(CC=C(C)C)cc(C2CC(=O)c3c(O)cc(O)cc3O2)cc1CC=C(C)C (configuration not stated),3.65 µM
17,Cc1nc(-c2ccccc2)sc1C(=O)/C=C/c1ccc(Cl)cc1,7.62 µM
18,COc1cc(OC)cc(-c2cc3ccc(OC)cc3cn2)c1,5.43 µM
19,O=C(Nc1nc2ccc(SC(F)F)cc2s1)c1ccc(NS(=O)(=O)c2ccc(F)c(F)c2)cc1,3.58 µM
20,Cc1nc2ccc(Br)cn2c1C(=O)N/N=C\c1ccc(C(C)C)cc1,4.34 µM
21,COc1ccc(OC)c(/C=C2\S/C(=N/NC(=O)c3ccc4ccccc4c3)NC2=O)c1,9.71 µM
22,CCCCC[C@@H]1C=C(C(=O)O)[C@H](c2ccc(Cl)c(Cl)c2)N1S(=O)(=O)c1ccc(C)cc1,5.05 µM
23,Cn1c(-c2ccccc2)cnc1NCc1ccc(-c2ccccc2)cc1,0.683 µM
24,FC(F)(F)c1cc(CCN2CCNC[C@@H]2Cc2ccccc2)cc(C(F)(F)F)c1,13.7 µM
